Blank lines part the entries; values can stand above or below the compound they belong to. Active and inactive are the calls of the source. Unless noted, the calls are words filed in the database; no cut-off is given here.
Legend:
[1] = target: Dual specificity protein phosphatase 3 (Homo sapiens, UniProt P51452); assay: inhibition constants for human DUSP3 – biochemical, colorimetric, SAR follow-up (AID 2004)
[2] = target: Voltage-gated N-type calcium channel alpha-1B subunit/Amyloid beta A4 precursor protein-binding family A member 1 (Homo sapiens, UniProt Q00975+Q02410); assay: disruptors of Mint-PDZ/N-type channel peptide interaction – biochemical, HTRF, SAR follow-up (AID 2489); format: functional
[3] = target: T1, Tyrosine-protein phosphatase non-receptor type 7 (Homo sapiens, UniProt P35236); assay: redox-active compounds inhibiting HePTP phosphatase – biochemical, fluorescence, mechanism study (AID 2068); format: functional
T1 sequence (P35236 whole entry): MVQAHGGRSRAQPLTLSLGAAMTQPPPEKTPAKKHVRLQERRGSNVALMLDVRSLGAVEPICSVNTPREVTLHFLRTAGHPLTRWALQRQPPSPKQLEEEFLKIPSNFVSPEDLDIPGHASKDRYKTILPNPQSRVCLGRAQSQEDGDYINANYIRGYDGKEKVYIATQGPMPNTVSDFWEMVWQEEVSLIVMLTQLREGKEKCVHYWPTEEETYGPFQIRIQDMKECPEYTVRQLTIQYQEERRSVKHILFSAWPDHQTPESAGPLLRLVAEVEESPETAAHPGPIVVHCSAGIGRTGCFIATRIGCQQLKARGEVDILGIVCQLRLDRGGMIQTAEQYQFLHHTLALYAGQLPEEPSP

[4] = target: Sigma non-opioid intracellular receptor 1 (Homo sapiens, UniProt Q99720); assay: Late-stage radioligand binding dose response assay to identify inhibitors of NADPH oxidase 1 (NOX1): PDSP screen Ki. [Related pubchem assays (depositor defined):AID1792, AID1796, AID1823, AID2532, AID2538, AID2539, AID2541, AID2545, AID2556, AID2664, AID2752, AID2773, AID434992, AID434993, AID434997, AID435002, AID435009, AID435013, AID463255 …
[5] = target: D(3) dopamine receptor (Homo sapiens, UniProt P35462); assay: as above
[6] = target: Alpha-2C adrenergic receptor (Homo sapiens, UniProt P18825); assay: as above
[7] = target: Muscarinic acetylcholine receptor M3 (Homo sapiens, UniProt P20309); assay: as above
[8] = target: 5-hydroxytryptamine receptor 4 (Homo sapiens, UniProt Q13639); assay: as above
[9] = target: Alpha-2B adrenergic receptor (Homo sapiens, UniProt P18089); assay: as above
[10] = target: NADPH oxidase 1 (Homo sapiens, UniProt Q9Y5S8); assay: Luminescence-based cell-based dose response assay to identify inhibitors of NADPH oxidase 1 (NOX1).; format: functional
[11] = target: Alpha-2A adrenergic receptor (Homo sapiens, UniProt P08913); assay: Late-stage radioligand binding dose response assay to identify inhibitors of NADPH oxidase 1 (NOX1): PDSP screen Ki. [Related pubchem assays (depositor defined):AID1792, AID1796, AID1823, AID2532, AID2538, AID2539, AID2541, AID2545, AID2556, AID2664, AID2752, AID2773, AID434992, AID434993, AID434997, AID435002, AID435009, AID435013, AID463255 …
[12] = target: Sodium-dependent noradrenaline transporter (Homo sapiens, UniProt P23975); assay: as above
[13] = NIH3T3 cell viability loss – ATP luminescence, mouse fibroblasts, counter-screen, dose response (AID 2010); format: functional, cell-based;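 further: cells exposed to compound for about 90 hours before reading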
[14] = target: Oxytocin receptor (Homo sapiens, UniProt P30559); assay: Late-stage radioligand binding dose response assay to identify inhibitors of NADPH oxidase 1 (NOX1): PDSP screen Ki. [Related pubchem assays (depositor defined):AID1792, AID1796, AID1823, AID2532, AID2538, AID2539, AID2541, AID2545, AID2556, AID2664, AID2752, AID2773, AID434992, AID434993, AID434997, AID435002, AID435009, AID435013, AID463255 …
[15] = Trypanosoma cruzi growth suppression in host cells – NIH3T3 host cells, beta-gal luminescence, confirmation (AID 2044); format: functional, cell-based;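 further: intracellular parasites grown in NIH/3T3 mouse fibroblasts as host cells; luminescent beta-galactosidase reporter signal from transgenic T. cruzi replicating inside host cells; inhibitors lower the luminescence signal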
[16] = target: 5-hydroxytryptamine receptor 2B (Homo sapiens, UniProt P41595); assay: Late-stage radioligand binding dose response assay to identify inhibitors of NADPH oxidase 1 (NOX1): PDSP screen Ki. [Related pubchem assays (depositor defined):AID1792, AID1796, AID1823, AID2532, AID2538, AID2539, AID2541, AID2545, AID2556, AID2664, AID2752, AID2773, AID434992, AID434993, AID434997, AID435002, AID435009, AID435013, AID463255 …
[17] = target: Glutamate receptor ionotropic, kainate 5 (Rattus norvegicus, UniProt Q63273); assay: as above
[18] = viability of uninfected HEp-2 cells – cell-based, HTS, cytotoxicity control for RSV inhibitor project, dose response (AID 2410); format: functional; details: human respiratory syncytial virus
[19] = target: Muscarinic acetylcholine receptor M4 (Homo sapiens, UniProt P08173); assay: Late-stage radioligand binding dose response assay to identify inhibitors of NADPH oxidase 1 (NOX1): PDSP screen Ki. [Related pubchem assays (depositor defined):AID1792, AID1796, AID1823, AID2532, AID2538, AID2539, AID2541, AID2545, AID2556, AID2664, AID2752, AID2773, AID434992, AID434993, AID434997, AID435002, AID435009, AID435013, AID463255 …
[20] = target: Muscarinic acetylcholine receptor M5 (Homo sapiens, UniProt P08912); assay: as above
[21] = target: Sodium-dependent serotonin transporter (Homo sapiens, UniProt P31645); assay: as above
[22] = target: 5-hydroxytryptamine receptor 2C (Homo sapiens, UniProt P28335); assay: as above
[23] = blockers of SFLLRN-triggered platelet ATP secretion – cell-based, human platelets, luminescence, dry powder, dose response (AID 493100); format: functional
[24] = target: G2/mitotic-specific cyclin-B1 (Homo sapiens, UniProt P14635); assay: HeLa cell cycle G2/M accumulation – FACS, mechanism study for Wee1 degradation inhibitor project, late-stage follow-up, panel member Cyclin B Degradation (AID 2088)
[25] = target: Wee1-like protein kinase (Homo sapiens, UniProt P30291); assay: HeLa cell cycle G2/M accumulation – FACS, mechanism study for Wee1 degradation inhibitor project, late-stage follow-up, panel member Wee1 Degradation (AID 2088)
[26] = target: Bcl-2-like protein 10 (Homo sapiens, UniProt Q9HD36); assay: Bcl-B/TR3 peptide binding disruption – biochemical, fluorescence polarization, FITC-TR3 peptide, selectivity assay for Bfl-1 inhibitor project, primary screen (AID 748);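 further: fluorescence polarization from a fluorescein-labelled TR3 peptide binding purified Bcl-B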
[27] = target: DNA dC->dU-editing enzyme APOBEC-3A (Homo sapiens, UniProt P31941); assay: Dose Response confirmation of small molecule APOBEC3A DNA Deaminase Inhibitors via a fluorescence-based single-stranded DNA deaminase assay. [Related pubchem assays (depositor defined):AID493011, AID493024]; format: functional
[28] = target: DNA dC->dU-editing enzyme APOBEC-3G (Homo sapiens, UniProt Q9HC16); format: functional;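 further: Dose-response counterscreen measuring inhibition of APOBEC3G DNA deaminase activity, run while confirming APOBEC3A inhibitors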
[29] = target: Cystic fibrosis transmembrane conductance regulator/Golgi-associated PDZ and coiled-coil motif-containing protein (Homo sapiens, UniProt P13569+Q9HD26); assay: potency against CAL PDZ-peptide interaction – biochemical, fluorescence polarization, Cerulean-tagged CAL PDZ, cherry-picks, dose response (AID 504773)
Chain of Cystic fibrosis transmembrane conductance regulator/Golgi-associated PDZ and coiled-coil motif-containing protein (P13569 whole entry, other chains not shown): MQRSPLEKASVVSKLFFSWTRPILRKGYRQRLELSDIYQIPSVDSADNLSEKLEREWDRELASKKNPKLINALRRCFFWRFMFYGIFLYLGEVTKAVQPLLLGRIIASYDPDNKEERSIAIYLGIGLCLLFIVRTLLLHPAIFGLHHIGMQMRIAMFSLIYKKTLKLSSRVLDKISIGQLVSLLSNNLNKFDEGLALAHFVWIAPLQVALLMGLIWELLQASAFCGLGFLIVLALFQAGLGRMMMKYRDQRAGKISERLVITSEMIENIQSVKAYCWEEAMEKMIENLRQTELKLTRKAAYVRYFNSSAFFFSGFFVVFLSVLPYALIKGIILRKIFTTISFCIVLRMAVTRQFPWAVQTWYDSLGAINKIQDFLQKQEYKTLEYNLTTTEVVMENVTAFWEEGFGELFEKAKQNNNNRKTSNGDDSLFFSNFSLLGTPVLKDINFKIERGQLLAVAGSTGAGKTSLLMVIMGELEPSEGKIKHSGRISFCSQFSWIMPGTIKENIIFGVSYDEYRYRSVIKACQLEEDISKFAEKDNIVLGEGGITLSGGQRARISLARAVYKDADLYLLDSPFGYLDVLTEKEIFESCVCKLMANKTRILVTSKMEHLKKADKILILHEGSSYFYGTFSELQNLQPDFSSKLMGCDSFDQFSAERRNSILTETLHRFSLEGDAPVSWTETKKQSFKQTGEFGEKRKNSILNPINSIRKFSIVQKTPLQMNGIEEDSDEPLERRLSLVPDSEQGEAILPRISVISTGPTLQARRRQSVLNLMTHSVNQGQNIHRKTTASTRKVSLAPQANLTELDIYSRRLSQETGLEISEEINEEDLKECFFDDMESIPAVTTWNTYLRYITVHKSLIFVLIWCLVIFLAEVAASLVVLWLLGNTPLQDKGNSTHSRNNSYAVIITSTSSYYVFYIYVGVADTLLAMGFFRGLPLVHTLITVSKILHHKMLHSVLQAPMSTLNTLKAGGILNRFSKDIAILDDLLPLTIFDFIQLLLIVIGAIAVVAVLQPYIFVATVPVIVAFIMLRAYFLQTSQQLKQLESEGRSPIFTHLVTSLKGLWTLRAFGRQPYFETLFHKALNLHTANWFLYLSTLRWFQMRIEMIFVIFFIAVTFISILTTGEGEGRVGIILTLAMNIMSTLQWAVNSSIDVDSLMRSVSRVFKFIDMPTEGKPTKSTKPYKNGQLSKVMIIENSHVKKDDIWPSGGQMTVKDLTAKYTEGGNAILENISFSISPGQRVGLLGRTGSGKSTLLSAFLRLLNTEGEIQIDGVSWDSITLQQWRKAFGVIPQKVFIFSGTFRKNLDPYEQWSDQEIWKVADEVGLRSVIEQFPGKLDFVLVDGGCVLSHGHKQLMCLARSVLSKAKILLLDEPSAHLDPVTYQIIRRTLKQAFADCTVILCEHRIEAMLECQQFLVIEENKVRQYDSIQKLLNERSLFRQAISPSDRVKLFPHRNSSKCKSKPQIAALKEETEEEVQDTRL

Chain of Muscarinic acetylcholine receptor M3 (P20309 whole entry): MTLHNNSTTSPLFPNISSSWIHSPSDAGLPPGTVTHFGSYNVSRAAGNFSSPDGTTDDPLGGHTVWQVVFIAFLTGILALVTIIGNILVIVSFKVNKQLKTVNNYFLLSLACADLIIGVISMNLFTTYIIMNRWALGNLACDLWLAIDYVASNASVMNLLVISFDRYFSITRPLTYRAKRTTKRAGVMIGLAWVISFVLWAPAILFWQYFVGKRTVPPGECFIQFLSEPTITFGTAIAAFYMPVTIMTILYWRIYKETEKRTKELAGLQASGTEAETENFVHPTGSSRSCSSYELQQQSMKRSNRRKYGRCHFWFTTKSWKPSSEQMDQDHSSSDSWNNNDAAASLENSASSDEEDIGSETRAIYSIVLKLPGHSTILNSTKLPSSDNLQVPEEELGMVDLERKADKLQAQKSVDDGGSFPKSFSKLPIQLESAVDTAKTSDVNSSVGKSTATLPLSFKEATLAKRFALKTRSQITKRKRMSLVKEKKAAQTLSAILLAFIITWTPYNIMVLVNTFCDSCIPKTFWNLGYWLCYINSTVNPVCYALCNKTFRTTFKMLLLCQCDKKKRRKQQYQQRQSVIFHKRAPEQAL
Chain of Alpha-2B adrenergic receptor (P18089 whole entry): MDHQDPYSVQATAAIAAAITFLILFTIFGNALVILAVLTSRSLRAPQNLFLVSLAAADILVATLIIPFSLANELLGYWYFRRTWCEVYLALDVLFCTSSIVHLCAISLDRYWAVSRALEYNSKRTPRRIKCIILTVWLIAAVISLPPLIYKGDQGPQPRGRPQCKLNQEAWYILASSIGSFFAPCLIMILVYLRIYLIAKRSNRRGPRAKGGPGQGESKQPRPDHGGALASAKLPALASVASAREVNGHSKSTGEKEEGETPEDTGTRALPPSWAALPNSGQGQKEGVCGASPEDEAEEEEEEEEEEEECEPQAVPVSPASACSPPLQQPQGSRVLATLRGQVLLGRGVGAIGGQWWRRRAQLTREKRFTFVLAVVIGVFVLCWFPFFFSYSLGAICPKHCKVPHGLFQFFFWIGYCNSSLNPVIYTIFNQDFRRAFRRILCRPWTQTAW
Chain of G2/mitotic-specific cyclin-B1 (P14635 whole entry): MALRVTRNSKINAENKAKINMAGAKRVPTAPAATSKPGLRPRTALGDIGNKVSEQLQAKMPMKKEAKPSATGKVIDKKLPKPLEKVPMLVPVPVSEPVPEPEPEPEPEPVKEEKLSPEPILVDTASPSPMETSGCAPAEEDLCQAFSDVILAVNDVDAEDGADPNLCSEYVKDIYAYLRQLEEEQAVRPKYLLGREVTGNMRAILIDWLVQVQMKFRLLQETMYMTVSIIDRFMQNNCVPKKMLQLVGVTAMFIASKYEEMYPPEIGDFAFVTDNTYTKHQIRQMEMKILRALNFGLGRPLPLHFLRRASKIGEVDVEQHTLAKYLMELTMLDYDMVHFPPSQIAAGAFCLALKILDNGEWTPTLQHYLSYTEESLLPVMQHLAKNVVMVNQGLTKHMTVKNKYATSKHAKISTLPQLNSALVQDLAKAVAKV
Chain of 5-hydroxytryptamine receptor 2B (P41595 whole entry): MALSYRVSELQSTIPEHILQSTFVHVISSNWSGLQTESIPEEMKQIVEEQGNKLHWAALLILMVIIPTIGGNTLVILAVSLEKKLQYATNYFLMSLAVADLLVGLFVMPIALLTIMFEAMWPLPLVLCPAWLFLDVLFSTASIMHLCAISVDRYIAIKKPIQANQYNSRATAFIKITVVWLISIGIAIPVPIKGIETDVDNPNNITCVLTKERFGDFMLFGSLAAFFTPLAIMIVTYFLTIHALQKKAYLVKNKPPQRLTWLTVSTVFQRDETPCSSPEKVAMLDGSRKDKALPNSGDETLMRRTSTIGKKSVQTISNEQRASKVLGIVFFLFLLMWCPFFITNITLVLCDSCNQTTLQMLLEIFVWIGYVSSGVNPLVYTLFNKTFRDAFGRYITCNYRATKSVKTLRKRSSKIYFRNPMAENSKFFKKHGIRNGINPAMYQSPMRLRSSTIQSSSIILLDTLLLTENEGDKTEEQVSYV
Chain of Wee1-like protein kinase (P30291 whole entry): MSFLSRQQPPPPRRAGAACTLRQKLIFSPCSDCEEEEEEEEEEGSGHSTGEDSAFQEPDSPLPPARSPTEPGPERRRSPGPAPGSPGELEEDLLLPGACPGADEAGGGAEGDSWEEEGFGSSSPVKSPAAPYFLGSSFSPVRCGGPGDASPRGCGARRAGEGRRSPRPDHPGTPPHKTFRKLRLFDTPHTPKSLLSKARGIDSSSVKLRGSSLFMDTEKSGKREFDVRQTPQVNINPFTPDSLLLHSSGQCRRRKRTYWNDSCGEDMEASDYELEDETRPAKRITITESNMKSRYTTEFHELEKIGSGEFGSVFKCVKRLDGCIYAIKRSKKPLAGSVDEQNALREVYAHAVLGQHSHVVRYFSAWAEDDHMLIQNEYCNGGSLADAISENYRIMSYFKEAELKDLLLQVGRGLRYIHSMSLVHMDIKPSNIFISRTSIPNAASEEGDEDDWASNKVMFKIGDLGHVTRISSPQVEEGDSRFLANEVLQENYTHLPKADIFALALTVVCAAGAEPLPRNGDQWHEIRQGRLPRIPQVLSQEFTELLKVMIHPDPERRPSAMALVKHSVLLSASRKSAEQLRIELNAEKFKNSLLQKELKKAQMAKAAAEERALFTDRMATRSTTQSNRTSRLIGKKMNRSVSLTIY
Chain of NADPH oxidase 1 (Q9Y5S8 whole entry): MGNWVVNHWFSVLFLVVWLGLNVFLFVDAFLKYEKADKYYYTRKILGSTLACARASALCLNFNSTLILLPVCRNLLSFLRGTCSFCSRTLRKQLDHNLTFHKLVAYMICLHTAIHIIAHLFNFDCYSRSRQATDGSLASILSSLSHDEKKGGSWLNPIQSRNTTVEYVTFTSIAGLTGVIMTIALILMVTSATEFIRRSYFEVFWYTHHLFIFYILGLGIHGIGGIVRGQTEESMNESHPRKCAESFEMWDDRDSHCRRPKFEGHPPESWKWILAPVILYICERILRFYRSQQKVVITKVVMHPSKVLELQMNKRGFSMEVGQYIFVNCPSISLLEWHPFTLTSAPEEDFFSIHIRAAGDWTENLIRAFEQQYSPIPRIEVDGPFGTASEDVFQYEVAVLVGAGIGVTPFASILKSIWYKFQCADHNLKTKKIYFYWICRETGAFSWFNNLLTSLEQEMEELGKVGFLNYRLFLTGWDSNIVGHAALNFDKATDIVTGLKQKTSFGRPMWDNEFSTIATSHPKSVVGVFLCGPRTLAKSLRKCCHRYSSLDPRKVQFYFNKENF
Chain of 5-hydroxytryptamine receptor 4 (Q13639 whole entry): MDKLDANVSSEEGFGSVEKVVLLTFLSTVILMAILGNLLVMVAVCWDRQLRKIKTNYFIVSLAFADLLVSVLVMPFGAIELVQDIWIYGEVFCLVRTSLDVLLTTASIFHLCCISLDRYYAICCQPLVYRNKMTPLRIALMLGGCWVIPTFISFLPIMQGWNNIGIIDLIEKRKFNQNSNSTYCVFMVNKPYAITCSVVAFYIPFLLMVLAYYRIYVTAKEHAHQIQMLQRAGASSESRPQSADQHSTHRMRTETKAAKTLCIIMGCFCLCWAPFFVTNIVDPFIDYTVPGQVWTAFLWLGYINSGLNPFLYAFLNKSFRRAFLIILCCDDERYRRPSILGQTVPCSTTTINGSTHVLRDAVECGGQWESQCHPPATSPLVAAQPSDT

Compound: CCC(CO)N/C=C1\C(=O)N(c2c(Cl)cccc2Cl)c2ccccc21 (centres undefined)
Ki [1]: 24.2 µM (inactive)

IC50 [2]: 22.3 µM (active)
IC50 [3]: 0.693 µM (active)
Compound: O=C(Nc1ccc2nc(-c3ccco3)c(-c3ccco3)nc2c1)N1CCOCC1

Compound: CN1c2ccccc2Sc2cc(N)ccc21
Ki [4]: > 10 µM (inactive)
Ki [5]: 9.06 µM (active)
Ki [6]: 5.76 µM (active)
Ki [7]: 10 µM (inactive)
Ki [8]: > 10 µM (inactive)
Ki [9]: 2.72 µM (active)
IC50 [10]: 0.044 µM (active)
Ki [11]: 6.92 µM (active)
Ki [12]: 3.94 µM (active)
EC50 [13]: > 60 µM (not active)
Ki [14]: > 10 µM (inactive)
EC50 [15]: 1.27 µM (active)
Ki [16]: 0.556 µM (active)
Ki [17]: > 10 µM (inactive)
CC50 [18]: 27.1 µM (active)
Ki [19]: > 10 µM (inactive)
Ki [20]: > 10 µM (inactive)
Ki [21]: 10 µM (active)
Ki [22]: 2.96 µM (active)

Compound: CCCC(=O)Nc1cccc(NC(=O)c2ccccc2C)c1
AC50 [23]: 5.5 µM (active)

EC50 [24]: > 49.7 µM (inactive)
EC50 [25]: > 49.7 µM (inactive)
Compound: Cc1cc(=O)[nH]c(-n2nc(C)cc2NC(=O)c2cccs2)n1

Compound: CCC1=[N+](C)CCn2c(C)ccc21
IC50 [26]: > 100 µM (inactive)
IC50 [27]: 1.51 µM (active)
IC50 [28]: 1.32 µM (active)

AC50 [29]: 17.3 µM (active)
Compound: O=C1OC(c2ccccc2)(c2ccccc2)c2ccccc21

From ChEMBL document CHEMBL1201862, “PubChem BioAssay data set” (2004)
